According to ChEMBL document CHEMBL1201862, “PubChem BioAssay data set” (2004):
Calls of active or inactive are those of the source.

Columns and labels:
[1] = molecular target: SWI/SNF-related matrix-associated actin-dependent regulator of chromatin subfamily A member 2 (Homo sapiens, UniProt P51531); assay: Luminescence-based cell-based high throughput dose response assay to identify activators of the function of SWI/SNF related, matrix associated, actin dependent regulator of chromatin, subfamily a, member 2 (SMARCA2, BRM).; type: functional
[2] = molecular target: T1, Rac GTPase-activating protein 1 (Homo sapiens, UniProt Q9H0H5); assay: blockers of MgcRacGAP-driven Rac1 GTP hydrolysis – biochemical, ADP Hunter fluorescence, primary and confirmatory, confirmation (AID 624330); type: functional
T1 sequence (Q9H0H5 whole entry): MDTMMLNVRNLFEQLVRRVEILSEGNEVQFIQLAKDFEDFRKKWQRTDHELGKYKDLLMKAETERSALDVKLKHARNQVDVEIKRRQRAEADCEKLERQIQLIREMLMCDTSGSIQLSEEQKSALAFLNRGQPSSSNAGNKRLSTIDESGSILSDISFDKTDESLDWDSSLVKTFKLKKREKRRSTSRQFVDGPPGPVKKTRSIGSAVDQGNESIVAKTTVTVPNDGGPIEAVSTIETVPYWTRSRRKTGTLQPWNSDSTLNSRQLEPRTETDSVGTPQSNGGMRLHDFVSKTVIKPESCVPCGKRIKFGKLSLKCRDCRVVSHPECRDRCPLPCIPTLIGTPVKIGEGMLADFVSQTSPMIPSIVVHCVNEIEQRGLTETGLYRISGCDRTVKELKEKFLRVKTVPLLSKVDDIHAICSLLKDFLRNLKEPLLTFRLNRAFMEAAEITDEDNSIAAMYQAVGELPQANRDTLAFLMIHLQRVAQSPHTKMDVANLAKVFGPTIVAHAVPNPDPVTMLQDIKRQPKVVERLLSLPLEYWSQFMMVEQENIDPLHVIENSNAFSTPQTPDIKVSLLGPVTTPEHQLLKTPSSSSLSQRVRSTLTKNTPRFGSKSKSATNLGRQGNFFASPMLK

[3] = molecular target: Beta Lactamase (Pseudomonas aeruginosa, UniProt Q932Y6); assay: BLA reporter interference, concentration series – BLA reporter cells, FRET fluorescence, artefact control for NOD2-RIPK2 interaction inhibitor project, dose response (AID 651552); type: functional, cell-based
[4] = molecular target: Hexokinase (Trypanosoma brucei, UniProt Q38C41); assay: Confirmation assay for inhibitors of Trypanosoma brucei hexokinase 1-Analogue-first series. [Related pubchem assays (depositor defined):AID1430, AID1632, AID2516, AID2560, AID2579, AID2600, AID449725, AID492951]; type: functional
[5] = molecular target: Mitochondrial peptide methionine sulfoxide reductase (Bos taurus, UniProt P54149); assay: Absorbance-based biochemical high throughput dose response assay for activators of Methionine sulfoxide reductase A (MsrA).; type: functional
[6] = Counterscreen for activators of the function of SWI/SNF related, matrix associated, actin dependent regulator of chromatin, subfamily a, member 2 (SMARCA2, BRM): Luminescence-based cell-based high throughput dose response assay to identify non-selective compounds using the VP16 reporter assay.; type: functional
[7] = molecular target: Glucose-6-phosphate 1-dehydrogenase (Homo sapiens, UniProt P11413); assay: inhibition of Homo sapiens G6PD, dose series – biochemical, fluorescence, selectivity assay for P. falciparum G6PD inhibitor project, dose response (AID 504792); type: functional
[8] = Fluorescence-based cell-based high throughput dose response assay for inhibitors of the interaction of nucleotide-binding oligomerization domain containing 2 (NOD2) and the receptor-interacting serine-threonine kinase 2 (RIPK2).; type: functional; settings: Homo sapiens
[9] = molecular target: T2, Trace amine-associated receptor 1 (Homo sapiens, UniProt Q96RJ0); assay: Counterscreen for agonists of the human trace amine associated receptor 1 (hTAAR1): Fluorescence-based cell-based high throughput dose response assay to identify hTAAR1 agonist that also desensitize TAAR1 receptor response.; type: functional
T2 sequence (Q96RJ0 whole entry): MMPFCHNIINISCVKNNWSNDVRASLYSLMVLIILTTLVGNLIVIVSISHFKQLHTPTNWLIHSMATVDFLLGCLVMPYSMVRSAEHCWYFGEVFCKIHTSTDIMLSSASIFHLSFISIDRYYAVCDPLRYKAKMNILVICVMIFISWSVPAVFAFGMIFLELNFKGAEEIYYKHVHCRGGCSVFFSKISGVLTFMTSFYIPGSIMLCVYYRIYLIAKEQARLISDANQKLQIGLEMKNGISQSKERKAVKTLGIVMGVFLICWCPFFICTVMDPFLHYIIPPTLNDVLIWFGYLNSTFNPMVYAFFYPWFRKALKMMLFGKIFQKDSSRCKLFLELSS

[10] = cells; type: functional, cell-based
[11] = molecular target: T2, Trace amine-associated receptor 1; assay: Fluorescence-based cell-based high throughput dose response assay to identify agonists of the human trace amine associated receptor 1 (TAAR1).; type: functional
[12] = cells; type: functional, cell-based; remark: listed apart in the source
[13] = molecular target: Melanocortin receptor 4 (Homo sapiens, UniProt P32245); type: functional, cell-based;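 note: Cell-based assay with luminescence read-out, confirmatory dose-response testing for agonist activity of biased ligands at MC4R; human U2OS cells with tagged receptor and beta-arrestin; potency of agonists that increase receptor coupling to beta-arrestin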
[14] = activation of miR-122 Renilla sensor silencing – cell-based, Huh7 psiCHECK-miR122, Renilla luciferase, cherry-picked, dose response (AID 651956); type: functional;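 note: huh7 hepatoma cells stably carrying a psiCHECK-2 miR-122 sensor plasmid; renilla luciferase signal reporting endogenous miR-122 activity after 48 h compound exposure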
[15] = general mammalian cell viability loss – activator set, cherry-pick, cytotoxicity control for miR-122 modulator project, dose response (AID 720690); type: functional, cell-based;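 note: HEK293T human cells scored for general mammalian cytotoxicity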
[16] = general mammalian cell viability loss – inhibitor set, cherry-pick, set 2, cytotoxicity control for miR-122 modulator project, dose response (AID 720697); type: functional, cell-based
[17] = TNFa-induced NF-kB reporter signal decrease – HEK293 LMP1 reporter cells, dry powder, set 2, selectivity assay for EBV LMP1 NF-kB inhibitor project, dose response (AID 624369); type: functional
[18] = cytotoxicity in HEK293 background cells – cell-based, dry powder, set 2, counter-screen for EBV LMP1 inhibitor project, dose response (AID 624374); type: functional
[19] = inhibitors of EBV LMP1 NF-kappaB signaling – cell-based, luciferase reporter, luminescence, dry powder, set 2, dose response (AID 624376); type: functional
[20] = LMP1-induced NF-kB luciferase signal inhibition – cell-based, EBV LMP1, dry powder, set 2, dose response (AID 624361); type: functional
[21] = test system: Vero; assay: viability loss in Vero cells – cell-based, plate reader, cherry-pick samples, cytotoxicity control, dose response (AID 687020); type: functional; settings: Chlorocebus sabaeus
[22] = molecular target: T3, Carboxy-terminal domain RNA polymerase II polypeptide A small phosphatase 1 (Homo sapiens, UniProt Q9GZU7); assay: CTDSP1 inhibitors, concentration-response, biochemical, absorbance readout, ultra-high-throughput screen actives (AID 540297); type: functional
T3 sequence (Q9GZU7 whole entry): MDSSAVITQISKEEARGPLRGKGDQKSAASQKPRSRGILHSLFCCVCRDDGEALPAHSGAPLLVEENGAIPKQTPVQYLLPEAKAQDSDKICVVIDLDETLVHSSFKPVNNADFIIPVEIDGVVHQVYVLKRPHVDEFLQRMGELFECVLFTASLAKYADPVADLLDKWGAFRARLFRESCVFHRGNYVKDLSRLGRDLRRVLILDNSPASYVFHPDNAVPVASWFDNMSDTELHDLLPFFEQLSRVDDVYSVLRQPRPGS

[23] = molecular target: T4, Low molecular weight phosphotyrosine protein phosphatase (Homo sapiens, UniProt P24666); type: functional; settings: read-out: IC50_Mean
T4 sequence (P24666 whole entry): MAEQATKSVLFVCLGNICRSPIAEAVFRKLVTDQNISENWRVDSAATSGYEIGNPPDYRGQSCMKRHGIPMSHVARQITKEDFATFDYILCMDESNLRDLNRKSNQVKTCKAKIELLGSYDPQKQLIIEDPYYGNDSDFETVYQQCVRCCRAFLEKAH

[24] = molecular target: T4, Low molecular weight phosphotyrosine protein phosphatase; type: functional; settings: read-out: IC50_Mean; remark: listed apart in the source

Sequence of Mitochondrial peptide methionine sulfoxide reductase (P54149 whole entry): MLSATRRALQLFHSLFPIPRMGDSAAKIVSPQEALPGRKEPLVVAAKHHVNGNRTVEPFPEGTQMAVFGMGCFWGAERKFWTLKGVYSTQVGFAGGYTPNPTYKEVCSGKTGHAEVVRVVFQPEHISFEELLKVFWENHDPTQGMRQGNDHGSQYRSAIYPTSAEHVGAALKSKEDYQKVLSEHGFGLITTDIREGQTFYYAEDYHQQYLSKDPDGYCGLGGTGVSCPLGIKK
Sequence of Glucose-6-phosphate 1-dehydrogenase (P11413 whole entry, the tested form may be a part): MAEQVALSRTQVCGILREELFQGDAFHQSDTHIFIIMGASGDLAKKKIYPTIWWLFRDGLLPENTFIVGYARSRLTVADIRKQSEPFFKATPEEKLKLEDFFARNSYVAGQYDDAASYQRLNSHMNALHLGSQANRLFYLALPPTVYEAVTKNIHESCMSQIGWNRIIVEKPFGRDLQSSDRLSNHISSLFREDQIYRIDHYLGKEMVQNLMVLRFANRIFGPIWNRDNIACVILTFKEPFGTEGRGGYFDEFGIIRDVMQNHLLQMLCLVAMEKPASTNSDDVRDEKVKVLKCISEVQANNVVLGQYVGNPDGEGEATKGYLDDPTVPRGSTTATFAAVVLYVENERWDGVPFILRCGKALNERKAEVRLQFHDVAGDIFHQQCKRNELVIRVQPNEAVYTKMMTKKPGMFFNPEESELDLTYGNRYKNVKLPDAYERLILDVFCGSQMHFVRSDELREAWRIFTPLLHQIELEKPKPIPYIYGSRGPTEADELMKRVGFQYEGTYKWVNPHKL
Sequence of Melanocortin receptor 4 (P32245 whole entry): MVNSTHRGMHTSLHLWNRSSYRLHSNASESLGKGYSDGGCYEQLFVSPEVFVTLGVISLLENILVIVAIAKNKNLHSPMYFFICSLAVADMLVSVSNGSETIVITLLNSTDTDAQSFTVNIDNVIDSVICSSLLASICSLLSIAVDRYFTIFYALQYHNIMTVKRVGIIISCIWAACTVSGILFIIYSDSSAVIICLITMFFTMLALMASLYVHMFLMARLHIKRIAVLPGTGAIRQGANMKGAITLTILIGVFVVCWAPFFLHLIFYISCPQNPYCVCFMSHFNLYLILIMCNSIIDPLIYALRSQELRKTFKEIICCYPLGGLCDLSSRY
Sequence of Hexokinase (Q38C41 whole entry): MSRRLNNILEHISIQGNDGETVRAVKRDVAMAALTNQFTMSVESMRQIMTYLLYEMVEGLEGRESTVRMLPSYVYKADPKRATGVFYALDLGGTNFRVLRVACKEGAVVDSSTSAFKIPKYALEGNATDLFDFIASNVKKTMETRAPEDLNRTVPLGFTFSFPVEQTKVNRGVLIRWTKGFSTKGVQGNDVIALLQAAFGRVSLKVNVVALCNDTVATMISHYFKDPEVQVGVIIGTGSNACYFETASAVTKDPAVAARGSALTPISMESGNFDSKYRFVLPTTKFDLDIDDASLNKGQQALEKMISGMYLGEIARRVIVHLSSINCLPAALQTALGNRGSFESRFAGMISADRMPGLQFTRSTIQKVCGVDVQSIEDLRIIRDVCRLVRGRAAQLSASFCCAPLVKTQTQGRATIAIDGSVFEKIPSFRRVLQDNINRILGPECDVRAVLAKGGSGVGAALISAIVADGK
Sequence of Beta Lactamase (Q932Y6 whole entry): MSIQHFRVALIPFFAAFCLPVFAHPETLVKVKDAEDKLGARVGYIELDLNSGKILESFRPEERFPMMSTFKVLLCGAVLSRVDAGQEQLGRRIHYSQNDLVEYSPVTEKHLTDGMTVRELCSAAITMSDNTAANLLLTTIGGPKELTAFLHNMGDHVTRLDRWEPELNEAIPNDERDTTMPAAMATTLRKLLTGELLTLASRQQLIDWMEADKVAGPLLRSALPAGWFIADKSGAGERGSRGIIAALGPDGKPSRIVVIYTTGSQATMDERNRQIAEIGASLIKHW
Sequence of SWI/SNF-related matrix-associated actin-dependent regulator of chromatin subfamily A member 2 (P51531 whole entry): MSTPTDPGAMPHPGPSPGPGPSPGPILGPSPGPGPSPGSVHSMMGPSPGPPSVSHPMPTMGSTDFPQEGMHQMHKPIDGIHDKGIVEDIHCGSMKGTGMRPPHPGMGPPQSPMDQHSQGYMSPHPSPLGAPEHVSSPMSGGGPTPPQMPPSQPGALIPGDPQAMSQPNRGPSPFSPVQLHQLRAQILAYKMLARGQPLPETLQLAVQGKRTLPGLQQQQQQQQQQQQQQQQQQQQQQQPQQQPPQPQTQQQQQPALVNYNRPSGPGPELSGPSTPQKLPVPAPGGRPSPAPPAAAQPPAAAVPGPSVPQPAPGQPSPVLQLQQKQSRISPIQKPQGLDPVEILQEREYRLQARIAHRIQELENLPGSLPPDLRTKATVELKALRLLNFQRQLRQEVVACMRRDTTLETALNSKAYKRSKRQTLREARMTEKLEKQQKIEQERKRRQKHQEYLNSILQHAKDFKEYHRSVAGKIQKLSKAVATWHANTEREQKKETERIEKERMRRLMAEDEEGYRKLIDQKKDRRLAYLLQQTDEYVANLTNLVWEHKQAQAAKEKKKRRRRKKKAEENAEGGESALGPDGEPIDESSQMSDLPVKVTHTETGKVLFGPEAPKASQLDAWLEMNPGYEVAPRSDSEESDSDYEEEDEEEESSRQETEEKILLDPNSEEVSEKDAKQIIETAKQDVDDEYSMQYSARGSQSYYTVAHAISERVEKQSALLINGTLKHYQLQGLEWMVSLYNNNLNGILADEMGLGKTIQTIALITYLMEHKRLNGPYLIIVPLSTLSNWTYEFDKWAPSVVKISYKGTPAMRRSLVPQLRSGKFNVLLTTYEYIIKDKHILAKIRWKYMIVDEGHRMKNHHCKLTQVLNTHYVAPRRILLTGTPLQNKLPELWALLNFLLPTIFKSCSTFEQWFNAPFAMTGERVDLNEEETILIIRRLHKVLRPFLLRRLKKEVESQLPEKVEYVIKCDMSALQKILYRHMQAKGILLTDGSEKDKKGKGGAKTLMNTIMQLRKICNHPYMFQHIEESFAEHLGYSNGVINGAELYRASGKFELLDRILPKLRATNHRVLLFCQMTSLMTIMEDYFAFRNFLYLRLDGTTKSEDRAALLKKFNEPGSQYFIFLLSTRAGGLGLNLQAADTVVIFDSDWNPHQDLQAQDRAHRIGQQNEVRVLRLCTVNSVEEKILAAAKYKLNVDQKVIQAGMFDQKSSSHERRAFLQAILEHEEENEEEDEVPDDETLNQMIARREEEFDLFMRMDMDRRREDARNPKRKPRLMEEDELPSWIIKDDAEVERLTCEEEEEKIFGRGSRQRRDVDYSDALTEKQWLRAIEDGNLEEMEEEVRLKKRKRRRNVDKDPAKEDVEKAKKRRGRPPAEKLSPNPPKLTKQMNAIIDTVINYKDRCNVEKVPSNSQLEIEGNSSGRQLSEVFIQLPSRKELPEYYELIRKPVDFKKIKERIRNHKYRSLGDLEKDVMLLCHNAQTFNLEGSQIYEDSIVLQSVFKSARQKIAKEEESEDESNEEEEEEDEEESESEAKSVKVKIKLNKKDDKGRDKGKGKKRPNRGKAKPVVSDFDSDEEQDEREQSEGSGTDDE

CC(=O)Nc1ccc2sn(-c3ccccc3)c(=O)c2c1
EC50 [1]: > 91.2 µM (inactive)
IC50 [2]: 53.3 µM (active)
IC50 [3]: 23.4 µM (inactive)
IC50 [4]: 6.31 µM (active)
EC50 [5]: > 104 µM (inactive)
EC50 [6]: > 91.2 µM (inactive)
IC50 [7]: 12.1 µM (active)
IC50 [8]: 6.19 µM (active)

O=C(O)C1C2CCC(C2)C1C(=O)NCCc1cccc(Cl)c1 (centres undefined)
IC50 [9]: > 29.9 µM (inactive)
EC50 [10]: > 29.9 µM (inactive)
EC50 [11]: 2.58 µM (active)
IC50 [12]: > 29.9 µM (inactive)

CC(=O)Nc1cc(-c2ccc(N(C)C)cc2)cn2c(-c3ccc(F)c(Cl)c3)cnc12
EC50 [13]: 3.99 µM (active)

C[C@H](CO)N1C[C@H](C)[C@H](CN(C)C(=O)c2ccc3c(c2)OCO3)Oc2cc(C#Cc3ccccc3F)ccc2S1(=O)=O
AC50 [14]: 36.6 µM (active)
AC50 [15]: 20.8 µM (active)
AC50 [16]: 23.7 µM (active)

COc1cccc(C(=O)Nc2ccc3c(c2)C(=O)N(C)C[C@H](OC)[C@@H](C)CN(CCc2ccccc2)[C@@H](C)CO3)c1
AbsAC35 [17]: 55.16 µM
AbsAC35 [18]: 50.41 µM
AbsAC35 [19]: 39.75 µM
AbsAC35 [20]: 44.38 µM

COc1ccc(NC(=O)N[C@H]2CC[C@@H](CCn3cc(C4(O)CCCC4)nn3)O[C@@H]2CO)cc1
AC50 [21]: 36.7 µM (active)

O=C(N/N=C\c1ccc(OC(=O)c2cccs2)cc1)c1ccc(Cl)cc1
IC50 [22]: 2.16 µM (active)
IC50 [23]: 4.51 µM (active)
IC50 [24]: 11.4 µM (active)
